Assay results as given in patent US8993544B2, “Carbamoylphosphonates as inhibitors and uses thereof” (priority 2009, dated 2015).

Target: T1, human MMP-9 (Homo sapiens, UniProt P14780)
T1 construct: purchased R&D Systems, Minneapolis
Experiment: Determination of MMP inhibitory potency, MMP-9
Format: biochemical
Settings: read-out: IC50 (μM) on MMP-9
Description: (§1) Recombinant enzymes, human MMP-1, MMP-2, MMP-3, MMP-8, MMP-9, MMP-12, MMP-13 and TACE (R&D Systems, Minneapolis) were incubated at four different concentrations with the relevant colorimetric or fluorescent peptide substrates (R&D Systems, Minneapolis) for 3 h. The tested compounds were added at four to six different concentrations and the inhibitory potencies expressed in a colorimetric change, was measured by an ELISA or fluorimeter.

T1 sequence (P14780 94-707): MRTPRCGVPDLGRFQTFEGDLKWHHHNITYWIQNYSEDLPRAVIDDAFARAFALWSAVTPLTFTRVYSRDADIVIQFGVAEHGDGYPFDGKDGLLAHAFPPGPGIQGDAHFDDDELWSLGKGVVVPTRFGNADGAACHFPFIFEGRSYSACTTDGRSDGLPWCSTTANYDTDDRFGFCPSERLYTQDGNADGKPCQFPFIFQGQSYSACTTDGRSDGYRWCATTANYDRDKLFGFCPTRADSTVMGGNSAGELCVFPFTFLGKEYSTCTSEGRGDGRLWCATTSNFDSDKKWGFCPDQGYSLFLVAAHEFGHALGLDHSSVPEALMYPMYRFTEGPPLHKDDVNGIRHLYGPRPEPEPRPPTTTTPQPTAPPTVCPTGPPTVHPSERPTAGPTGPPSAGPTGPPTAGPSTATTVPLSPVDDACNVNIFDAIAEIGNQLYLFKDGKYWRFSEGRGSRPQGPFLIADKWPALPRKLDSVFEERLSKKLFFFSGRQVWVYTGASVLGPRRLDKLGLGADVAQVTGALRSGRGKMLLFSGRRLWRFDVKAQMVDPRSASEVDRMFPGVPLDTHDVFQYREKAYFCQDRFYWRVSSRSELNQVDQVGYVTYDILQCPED

SMILES | IC50 [µM]
N[C@H](CNC(=O)P(=O)(O)O)CNS(=O)(=O)c1ccc(Oc2ccccc2)cc1 [Compound 8R, (R)-N-[2-amino-3-(4-phenoxybenzenesulfonamido)propyl]carbamoylphosphonic acid] | > 100
N[C@@H](CNC(=O)P(=O)(O)O)CNS(=O)(=O)c1ccc(Oc2ccccc2)cc1 [Compound 8S, (S)-N-[2-amino-3-(4-phenoxybenzenesulfonamido)propyl]carbamoylphosphonic acid] | > 100
O=C(NCCNCCNS(=O)(=O)c1ccc(Oc2ccccc2)cc1)P(=O)(O)O [Compound 10, N-{2-[2-(4-Phenoxybenzenesulfonylamino)-ethylamino]-ethyl}-carbamoylphosphonic acid] | > 100

Target: T2, human MMP-12 (Homo sapiens, UniProt P39900)
T2 construct: purchased R&D Systems, Minneapolis
Experiment: Determination of MMP inhibitory potency, MMP-12
Format: biochemical
Settings: read-out: IC50 (μM) on MMP-12
Description: as §1

T2 sequence (P39900 106-470): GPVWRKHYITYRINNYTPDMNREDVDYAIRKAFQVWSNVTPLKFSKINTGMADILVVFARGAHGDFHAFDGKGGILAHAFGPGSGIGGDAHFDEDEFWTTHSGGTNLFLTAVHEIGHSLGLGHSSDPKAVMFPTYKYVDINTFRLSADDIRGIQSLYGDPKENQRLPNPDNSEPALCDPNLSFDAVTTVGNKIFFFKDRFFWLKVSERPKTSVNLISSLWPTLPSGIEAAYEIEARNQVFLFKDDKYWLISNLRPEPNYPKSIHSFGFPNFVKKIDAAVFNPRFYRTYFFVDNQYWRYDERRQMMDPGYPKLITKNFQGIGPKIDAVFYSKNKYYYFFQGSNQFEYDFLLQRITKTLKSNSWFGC

SMILES | IC50 [µM]
N[C@H](CNC(=O)P(=O)(O)O)CNS(=O)(=O)c1ccc(Oc2ccccc2)cc1 [Compound 8R, (R)-N-[2-amino-3-(4-phenoxybenzenesulfonamido)propyl]carbamoylphosphonic acid] | 12
N[C@@H](CNC(=O)P(=O)(O)O)CNS(=O)(=O)c1ccc(Oc2ccccc2)cc1 [Compound 8S, (S)-N-[2-amino-3-(4-phenoxybenzenesulfonamido)propyl]carbamoylphosphonic acid] | > 100

Target: T3, human MMP-8 (Homo sapiens, UniProt P22894)
T3 construct: purchased R&D Systems, Minneapolis
Experiment: Determination of MMP inhibitory potency, MMP-8
Format: biochemical
Settings: read-out: IC50 (μM) on MMP-8
Description: as §1

T3 sequence (P22894 101-467): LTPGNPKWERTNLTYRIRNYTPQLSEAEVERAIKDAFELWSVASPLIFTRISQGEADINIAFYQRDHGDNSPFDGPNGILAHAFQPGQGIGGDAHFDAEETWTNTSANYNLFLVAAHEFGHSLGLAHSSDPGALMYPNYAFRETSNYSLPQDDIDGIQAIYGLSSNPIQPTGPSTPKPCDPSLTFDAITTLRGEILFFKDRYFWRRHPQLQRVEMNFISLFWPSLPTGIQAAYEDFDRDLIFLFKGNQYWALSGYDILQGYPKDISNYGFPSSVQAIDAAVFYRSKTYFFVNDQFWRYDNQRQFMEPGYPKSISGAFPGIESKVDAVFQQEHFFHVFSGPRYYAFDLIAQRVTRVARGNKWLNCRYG

SMILES | IC50 [µM]
N[C@H](CNC(=O)P(=O)(O)O)CNS(=O)(=O)c1ccc(Oc2ccccc2)cc1 [Compound 8R, (R)-N-[2-amino-3-(4-phenoxybenzenesulfonamido)propyl]carbamoylphosphonic acid] | 15
N[C@@H](CNC(=O)P(=O)(O)O)CNS(=O)(=O)c1ccc(Oc2ccccc2)cc1 [Compound 8S, (S)-N-[2-amino-3-(4-phenoxybenzenesulfonamido)propyl]carbamoylphosphonic acid] | > 100
O=C(NCCNCCNS(=O)(=O)c1ccc(Oc2ccccc2)cc1)P(=O)(O)O [Compound 10, N-{2-[2-(4-Phenoxybenzenesulfonylamino)-ethylamino]-ethyl}-carbamoylphosphonic acid] | > 100

Target: T4, MMP-2 (Homo sapiens, UniProt P08253)
T4 sequence (P08253 110-660): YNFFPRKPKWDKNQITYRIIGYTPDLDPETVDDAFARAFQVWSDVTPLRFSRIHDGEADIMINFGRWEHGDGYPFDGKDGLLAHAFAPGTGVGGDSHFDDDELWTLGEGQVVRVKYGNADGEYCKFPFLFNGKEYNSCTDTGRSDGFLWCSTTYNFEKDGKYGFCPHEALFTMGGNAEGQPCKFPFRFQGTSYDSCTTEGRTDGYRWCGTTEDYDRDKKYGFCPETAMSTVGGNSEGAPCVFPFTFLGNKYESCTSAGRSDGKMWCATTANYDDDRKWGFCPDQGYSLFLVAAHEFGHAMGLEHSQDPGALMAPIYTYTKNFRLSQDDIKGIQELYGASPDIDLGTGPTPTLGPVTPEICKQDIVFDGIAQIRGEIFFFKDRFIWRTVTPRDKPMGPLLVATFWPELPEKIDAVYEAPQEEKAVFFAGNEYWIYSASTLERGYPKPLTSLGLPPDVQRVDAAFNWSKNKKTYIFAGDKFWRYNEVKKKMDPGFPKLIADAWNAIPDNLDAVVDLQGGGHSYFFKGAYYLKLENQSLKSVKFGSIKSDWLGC
Experiment: Determination of MMP inhibitory potency, MMP-2
Format: biochemical
Parameters: purchased R&D Systems, Minneapolis
Settings: read-out: IC50 (μM) on MMP-2
Description: as §1

SMILES | IC50 [µM]
N[C@H](CNC(=O)P(=O)(O)O)CNS(=O)(=O)c1ccc(Oc2ccccc2)cc1 [Compound 8R, (R)-N-[2-amino-3-(4-phenoxybenzenesulfonamido)propyl]carbamoylphosphonic acid] | 20
N[C@@H](CNC(=O)P(=O)(O)O)CNS(=O)(=O)c1ccc(Oc2ccccc2)cc1 [Compound 8S, (S)-N-[2-amino-3-(4-phenoxybenzenesulfonamido)propyl]carbamoylphosphonic acid] | 15
O=C(NCCNCCNS(=O)(=O)c1ccc(Oc2ccccc2)cc1)P(=O)(O)O [Compound 10, N-{2-[2-(4-Phenoxybenzenesulfonylamino)-ethylamino]-ethyl}-carbamoylphosphonic acid] | 20

Tested on: MMP and/or ADAM enzyme
Experiment: Duration of inhibitory effect on the enzymes inhibited
Format: biochemical, human
Settings: not given
Description: Previously, it has been established that cis-2-aminocyclohexycarbamoyl phosphonic acid (cis-ACCP), listed for the purpose of comparison in Tables 2 and 3 as “control”, was an effective nontoxic, in vivo active antimetastatic compound. […] In the study leading to the subject invention, it was determined that the inhibitory effect could be, and in fact was prolonged by substituting carbamoylphosphonic functionality with aromatic ring functionality as in the compounds of the invention. […]
as §1

SMILES | Duration of inhibitory effect [min]
N[C@H](CNC(=O)P(=O)(O)O)CNS(=O)(=O)c1ccc(Oc2ccccc2)cc1 [Compound 8R, (R)-N-[2-amino-3-(4-phenoxybenzenesulfonamido)propyl]carbamoylphosphonic acid] | >180
N[C@@H](CNC(=O)P(=O)(O)O)CNS(=O)(=O)c1ccc(Oc2ccccc2)cc1 [Compound 8S, (S)-N-[2-amino-3-(4-phenoxybenzenesulfonamido)propyl]carbamoylphosphonic acid] | >180
O=C(NCCNCCNS(=O)(=O)c1ccc(Oc2ccccc2)cc1)P(=O)(O)O [Compound 10, N-{2-[2-(4-Phenoxybenzenesulfonylamino)-ethylamino]-ethyl}-carbamoylphosphonic acid] | >180

Target: T5, human MMP-13 (Homo sapiens, UniProt P45452)
T5 construct: purchased R&D Systems, Minneapolis
Experiment: Determination of MMP inhibitory potency, MMP-13
Format: biochemical
Settings: read-out: IC50 (μM) on MMP-13
Description: as §1

SMILES | IC50 [µM]
N[C@H](CNC(=O)P(=O)(O)O)CNS(=O)(=O)c1ccc(Oc2ccccc2)cc1 [Compound 8R, (R)-N-[2-amino-3-(4-phenoxybenzenesulfonamido)propyl]carbamoylphosphonic acid] | > 100
N[C@@H](CNC(=O)P(=O)(O)O)CNS(=O)(=O)c1ccc(Oc2ccccc2)cc1 [Compound 8S, (S)-N-[2-amino-3-(4-phenoxybenzenesulfonamido)propyl]carbamoylphosphonic acid] | > 100

Tested on: tumor invasion
Experiment: In vitro model of tumor invasion (Boyden chamber, reconstituted basement membrane)
Format: cell-based
Settings: read-out: % Invasion-Inhibition by 50 μM drug
Description: The compound was also evaluated in an in vivo experimental model of metastasis using B16F10 tumor cells in C57B1 mice. […] The assay was carried out in a Boyden chamber with a reconstituted basement membrane (Matrigal).

SMILES | inhibition at 50 µM [%]
N[C@H](CNC(=O)P(=O)(O)O)CNS(=O)(=O)c1ccc(Oc2ccccc2)cc1 [Compound 8R, (R)-N-[2-amino-3-(4-phenoxybenzenesulfonamido)propyl]carbamoylphosphonic acid] | > 100
N[C@@H](CNC(=O)P(=O)(O)O)CNS(=O)(=O)c1ccc(Oc2ccccc2)cc1 [Compound 8S, (S)-N-[2-amino-3-(4-phenoxybenzenesulfonamido)propyl]carbamoylphosphonic acid] | > 100

Target: T6, human MMP-3 (Homo sapiens, UniProt P08254)
T6 construct: purchased R&D Systems, Minneapolis
Experiment: Determination of MMP inhibitory potency, MMP-3
Format: biochemical
Settings: read-out: IC50 (μM) on MMP-3
Description: as §1

T6 sequence (P08254 100-477): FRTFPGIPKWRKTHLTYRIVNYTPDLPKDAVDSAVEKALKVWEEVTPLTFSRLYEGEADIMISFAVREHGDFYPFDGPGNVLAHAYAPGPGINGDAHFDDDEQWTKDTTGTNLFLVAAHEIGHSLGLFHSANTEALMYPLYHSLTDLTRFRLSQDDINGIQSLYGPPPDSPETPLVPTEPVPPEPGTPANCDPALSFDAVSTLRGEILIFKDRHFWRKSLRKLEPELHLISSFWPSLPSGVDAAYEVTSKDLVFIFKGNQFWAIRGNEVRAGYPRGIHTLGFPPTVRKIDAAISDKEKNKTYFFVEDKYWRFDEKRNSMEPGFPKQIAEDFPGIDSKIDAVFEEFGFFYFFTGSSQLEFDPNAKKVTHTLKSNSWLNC

SMILES | IC50 [µM]
N[C@H](CNC(=O)P(=O)(O)O)CNS(=O)(=O)c1ccc(Oc2ccccc2)cc1 [Compound 8R, (R)-N-[2-amino-3-(4-phenoxybenzenesulfonamido)propyl]carbamoylphosphonic acid] | > 100
O=C(NCCNCCNS(=O)(=O)c1ccc(Oc2ccccc2)cc1)P(=O)(O)O [Compound 10, N-{2-[2-(4-Phenoxybenzenesulfonylamino)-ethylamino]-ethyl}-carbamoylphosphonic acid] | > 100

Tested on: not given
Experiment: not given
Settings: not given

SMILES | melting point [°C]
O=C(NCCNCCNS(=O)(=O)c1ccc(Oc2ccccc2)cc1)P(=O)(O)O [Compound 10, N-{2-[2-(4-Phenoxybenzenesulfonylamino)-ethylamino]-ethyl}-carbamoylphosphonic acid] | 224 to 225

Target: T7, TACE (Homo sapiens, UniProt P78536)
T7 construct: purchased R&D Systems, Minneapolis
Experiment: Determination of inhibitory potency, TACE
Format: biochemical
Settings: read-out: IC50 (μM) on TACE
Description: as §1

T7 sequence (P78536 215-824): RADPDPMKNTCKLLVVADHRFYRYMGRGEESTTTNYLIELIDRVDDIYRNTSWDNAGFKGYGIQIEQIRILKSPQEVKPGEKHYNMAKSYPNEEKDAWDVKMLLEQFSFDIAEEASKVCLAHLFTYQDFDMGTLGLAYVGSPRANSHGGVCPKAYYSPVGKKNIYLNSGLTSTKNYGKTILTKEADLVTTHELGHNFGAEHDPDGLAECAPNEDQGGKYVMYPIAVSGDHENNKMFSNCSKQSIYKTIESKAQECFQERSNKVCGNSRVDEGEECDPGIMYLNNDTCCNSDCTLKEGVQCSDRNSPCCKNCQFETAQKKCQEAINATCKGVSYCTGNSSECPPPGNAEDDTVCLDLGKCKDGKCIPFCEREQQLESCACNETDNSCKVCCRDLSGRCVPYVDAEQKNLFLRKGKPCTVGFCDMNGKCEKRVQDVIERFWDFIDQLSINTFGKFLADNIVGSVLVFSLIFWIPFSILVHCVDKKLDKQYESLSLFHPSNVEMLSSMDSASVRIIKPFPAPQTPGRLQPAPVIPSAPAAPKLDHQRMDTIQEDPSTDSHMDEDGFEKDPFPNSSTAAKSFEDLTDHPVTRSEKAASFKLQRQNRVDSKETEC

SMILES | IC50 [µM]
N[C@H](CNC(=O)P(=O)(O)O)CNS(=O)(=O)c1ccc(Oc2ccccc2)cc1 [Compound 8R, (R)-N-[2-amino-3-(4-phenoxybenzenesulfonamido)propyl]carbamoylphosphonic acid] | > 100
N[C@@H](CNC(=O)P(=O)(O)O)CNS(=O)(=O)c1ccc(Oc2ccccc2)cc1 [Compound 8S, (S)-N-[2-amino-3-(4-phenoxybenzenesulfonamido)propyl]carbamoylphosphonic acid] | > 100
O=C(NCCNCCNS(=O)(=O)c1ccc(Oc2ccccc2)cc1)P(=O)(O)O [Compound 10, N-{2-[2-(4-Phenoxybenzenesulfonylamino)-ethylamino]-ethyl}-carbamoylphosphonic acid] | > 100
